# Earlier results, collected in PMC4360375 (Journal of Medicinal Chemistry, 2015).
# System: GABA uptake, rat synaptosome
# Settings: literature data set; ref 10.1016/S0968-0896(01)00148-1; cited from earlier work
row,SMILES,pIC50
1,"CC(C)CN(CCOCCN1CCC[C@@H](C(=O)O)C1)c1ccc(F)cc1Cl [An_2001/6_45, Clc1cc(F)ccc1N(CC(C)C)CCOCCN1C[C@@H](CCC1)C(O)=O]",6.827
2,"O=C(O)[C@@H]1CCCN(CCO/N=C/C2(c3ccccc3)CCCC2)C1 [An_2001/6_23, O(\N=C\C1(CCCC1)c1ccccc1)CCN1C[C@@H](CCC1)C(O)=O]",6.337
3,"CC(C)CN(CCOCCN1CCC[C@@H](C(=O)O)C1)c1ccccc1 [An_2001/6_44, O(CCN1C[C@@H](CCC1)C(O)=O)CCN(CC(C)C)c1ccccc1]",6.553
4,"CC(C)C/C=C(/C=N/OCCN1CCC[C@@H](C(=O)O)C1)c1ccccc1 [An_2001/6_22, O(\N=C\C(=C\CC(C)C)\c1ccccc1)CCN1C[C@@H](CCC1)C(O)=O]",6.538
5,"O=C(O)[C@@H]1CCCN(CCOCCc2ccccc2)C1 [An_2001/6_43, O(CCc1ccccc1)CCN1C[C@@H](CCC1)C(O)=O]",5.347
6,"O=C(O)[C@@H]1CCCN(CCOCc2ccc3ccccc3c2-c2ccccc2)C1 [An_2001/6_36, O(Cc1ccc2c(cccc2)c1-c1ccccc1)CCN1C[C@@H](CCC1)C(O)=O]",5.098
7,"O=C(O)[C@@H]1CCCN(CCOc2ccccc2Cc2ccccc2)C1 [An_2001/6_34, O(CCN1C[C@@H](CCC1)C(O)=O)c1ccccc1Cc1ccccc1]",5.158

# Same assay, conditions: literature data set; ref 10.1021/jm00064a005; cited from earlier work
row,SMILES,pIC50
1,"Cc1ccccc1/C(=C\CCN1CCC[C@@H](C(=O)O)C1)c1sccc1C [An_1993_31, s1ccc(C)c1/C(=C/CCN1C[C@@H](CCC1)C(O)=O)/c1ccccc1C]",7.097
2,"Cc1ccsc1C(=CCCN1CCC=C(C(=O)O)C1)c1sccc1C [An_1993_30, s1ccc(C)c1\C(=C\CCN1CC(=CCC1)C(O)=O)\c1sccc1C]",6.854
3,"Cn1cccc1/C(=C/CCN1CCC=C(C(=O)O)C1)c1ccccc1 [An_1993_49, OC(=O)C=1CN(CCC=1)CC\C=C(/c1ccccc1)\c1n(ccc1)C]",6.886
4,"Cc1cc(Cl)ccc1/C(=C\CCN1CCC[C@@H](C(=O)O)C1)c1sccc1C [An_1993_44, Clc1cc(C)c(cc1)\C(=C/CCN1C[C@@H](CCC1)C(O)=O)\c1sccc1C]",6.959
5,"O=C(O)C1=CCCN(CCOC(c2ccc(C(F)(F)F)cc2)c2ccc(C(F)(F)F)cc2)C1 [Cl-966, FC(F)(F)c1ccc(cc1)C(OCCN1CC(=CCC1)C(O)=O)c1ccc(cc1)C(F)(F)F]",6.357
6,"Cc1ccsc1/C(=C/CCN1CCC=C(C(=O)O)C1)c1ccc(Cl)cc1Cl [An_1993_37, Clc1cc(Cl)ccc1\C(=C/CCN1CC(=CCC1)C(O)=O)\c1sccc1C]",6.495
7,"Cc1ccc(/C(=C\CCN2CCC[C@@H](C(=O)O)C2)c2sccc2C)c(C)c1 [An_1993_47, s1ccc(C)c1/C(=C/CCN1C[C@@H](CCC1)C(O)=O)/c1ccc(cc1C)C]",6.585
8,"Cc1ccccc1C(=CCCN1CCC[C@@H](C(=O)O)C1)c1ccccc1C [An_1993_34, OC(=O)[C@@H]1CCCN(C1)CC\C=C(\c1ccccc1C)/c1ccccc1C]",7.097
9,"Cc1ccsc1C(=CCCN1CCC[C@H](C(=O)O)C1)c1sccc1C [(S)-Tiagabine, s1ccc(C)c1\C(=C\CCN1C[C@H](CCC1)C(O)=O)\c1sccc1C]",6.658
10,"O=C(O)C1=CCCN(CCC=C(c2ccccc2)c2ccccc2)C1 [SK&F-100330-A, OC(=O)C=1CN(CCC=1)CC\C=C(\c1ccccc1)/c1ccccc1]",6.699

# Same assay, conditions: literature data set; ref 10.1021/jm980492e; cited from earlier work
row,SMILES,pIC50
1,"CN(CCC(c1ccccc1)c1ccccc1)CCN1CCC[C@@H](C(=O)O)C1 [An_1999/4_(R)-35, OC(=O)[C@@H]1CCCN(C1)CCN(CCC(c1ccccc1)c1ccccc1)C]",5.244
2,"Cc1ccccc1C(=CCOCCCN1CCC[C@@H](C(=O)O)C1)c1ccccc1C [An_1999/4_(R)-24, O(CCCN1C[C@@H](CCC1)C(O)=O)C\C=C(\c1ccccc1C)/c1ccccc1C]",7.097
3,O=C(O)[C@@H]1CCCN(CCCCCCCCN(c2ccccc2)c2ccccc2)C1 [An_1999/4_(R)-15],5.889
4,"O=C(O)[C@@H]1CCCN(CCCN(c2ccccc2)c2ccccc2)C1 [An_1999/4_(R)-10, OC(=O)[C@@H]1CCCN(C1)CCCN(c1ccccc1)c1ccccc1]",5.046
5,"O=C(O)[C@@H]1CCCN(CCCCCCC=C(c2ccccc2)c2ccccc2)C1 [An_1999/4_(R)-28, OC(=O)[C@@H]1CCCN(C1)CCCCCC\C=C(\c1ccccc1)/c1ccccc1]",5.866
6,"Cc1ccccc1[C@H](CCOCCN1CCC[C@@H](C(=O)O)C1)c1ccccc1 [An_1999/4_(R)-31, O(CC[C@@H](c1ccccc1C)c1ccccc1)CCN1C[C@@H](CCC1)C(O)=O]",7.066
7,"O=C(O)[C@@H]1CCCN(CCCCC=C(c2ccccc2)c2ccccc2)C1 [An_1999/4_(R)-27, OC(=O)[C@@H]1CCCN(C1)CCCC\C=C(\c1ccccc1)/c1ccccc1]",5.646

# Same assay, conditions: literature data set; ref 10.1021/jm981027k; cited from earlier work
row,SMILES,pIC50
1,"Cc1ccsc1C(=NOCCN1CCC[C@@H](C(=O)O)C1)c1sccc1C [An_1999/3_12, s1ccc(C)c1\C(=N\OCCN1C[C@@H](CCC1)C(O)=O)\c1sccc1C]",7.398
2,"Cc1ccccc1/C(=N\OCCN1CCC[C@H](C(=O)O)C1)c1sccc1C [An_1999/3_83, s1ccc(C)c1/C(=N/OCCN1C[C@H](CCC1)C(O)=O)/c1ccccc1C]",6.886
3,"Cc1csc(/C(=N\OCCN2CCC[C@@H](C(=O)O)C2)c2ccccc2C)c1 [An_1999/3_22, s1cc(cc1/C(=N\OCCN1C[C@@H](CCC1)C(O)=O)/c1ccccc1C)C]",6.585
4,"Cc1cc(F)ccc1C(=COCCN1CCC=C(C(=O)O)C1)c1ccc(F)cc1C [An_1999/3_100, Fc1cc(C)c(cc1)\C(=C\OCCN1CC(=CCC1)C(O)=O)\c1ccc(F)cc1C]",7.097
5,"Cc1ccccc1/C(=N\OCCN1CCC[C@@H](C(=O)O)C1)c1ccccc1Cl [An_1999/3_90, Clc1ccccc1/C(=N/OCCN1C[C@@H](CCC1)C(O)=O)/c1ccccc1C]",6.699
6,"Cc1cc(Cl)ccc1/C(=N/OCCN1CCC[C@@H](C(=O)O)C1)c1sccc1C [An_1999/3_84, Clc1cc(C)c(cc1)\C(=N\OCCN1C[C@@H](CCC1)C(O)=O)\c1sccc1C]",7.046
7,"Cc1ccccc1/C(=N\OCCN1CCC[C@@H](C(=O)O)C1)c1ccccc1F [An_1999/3_89, Fc1ccccc1/C(=N/OCCN1C[C@@H](CCC1)C(O)=O)/c1ccccc1C]",7.398
8,"O=C(O)[C@@H]1CCCN(CCOC=C(c2ccc(F)cc2Cl)c2ccc(F)cc2Cl)C1 [An_1999/3_111, Clc1cc(F)ccc1\C(=C\OCCN1C[C@@H](CCC1)C(O)=O)\c1ccc(F)cc1Cl]",7.18
9,"Cc1ccccc1/C(=C\OCCN1CCC=C(C(=O)O)C1)c1ccccc1F [An_1999/3_72, Fc1ccccc1/C(=C/OCCN1CC(=CCC1)C(O)=O)/c1ccccc1C]",7.699
10,"O=C(O)[C@@H]1CCCN(CCO/N=C(\c2ccc(F)cc2F)c2cc(F)ccc2F)C1 [An_1999/3_67, Fc1cc(F)ccc1/C(=N\OCCN1C[C@@H](CCC1)C(O)=O)/c1cc(F)ccc1F]",7.301
11,"Cc1ccccc1/C(=C/OCCN1CCC[C@@H](C(=O)O)C1)c1cccc(F)c1 [An_1999/3_76, Fc1cc(ccc1)/C(=C\OCCN1C[C@@H](CCC1)C(O)=O)/c1ccccc1C]",7.301
12,"Cc1csc(/C(=N/OCCN2CCC[C@H](C(=O)O)C2)c2ccccc2C)c1 [An_1999/3_21, s1cc(cc1/C(=N/OCCN1C[C@H](CCC1)C(O)=O)/c1ccccc1C)C]",5.062
13,"O=C(O)[C@@H]1CCCN(CCO/C=C(\c2ccccc2)c2ccccc2Cl)C1 [An_1999/3_73, Clc1ccccc1\C(=C\OCCN1C[C@@H](CCC1)C(O)=O)\c1ccccc1]",7.921
14,"O=C(O)[C@@H]1CCCN(CCON=C(c2ccc(F)cc2F)c2ccc(F)cc2F)C1 [An_1999/3_68, Fc1cc(F)ccc1\C(=N\OCCN1C[C@@H](CCC1)C(O)=O)\c1ccc(F)cc1F]",7
15,"Cc1ccccc1/C(=N\OCCN1CCC[C@H](C(=O)O)C1)c1cccc(Cl)c1 [An_1999/3_91, Clc1cc(ccc1)/C(=N/OCCN1C[C@H](CCC1)C(O)=O)/c1ccccc1C]",7.046
16,"Cc1ccccc1C(=NOCCN1CCC[C@@H](C(=O)O)C1)c1ccccc1C [An_1999/3_62, O(\N=C(\c1ccccc1C)/c1ccccc1C)CCN1C[C@@H](CCC1)C(O)=O]",7.155
17,"Cc1ccccc1/C(=C/OCCN1CCC[C@@H](C(=O)O)C1)c1ccccc1 [An_1999/3_97, O(\C=C(\c1ccccc1C)/c1ccccc1)CCN1C[C@@H](CCC1)C(O)=O]",7.301
18,"O=C(O)[C@@H]1CCCN(CCON=C(c2cccc(Cl)c2)c2cccc(Cl)c2)C1 [An_1999/3_93, Clc1cc(ccc1)\C(=N\OCCN1C[C@@H](CCC1)C(O)=O)\c1cc(Cl)ccc1]",6.509
19,"Cc1ccccc1C(=NOCCN1CCC[C@H](C(=O)O)C1)c1ccccc1C [An_1999/3_63, O(\N=C(\c1ccccc1C)/c1ccccc1C)CCN1C[C@H](CCC1)C(O)=O]",6.886
20,"Cc1ccccc1/C(=N\OCCN1CCC[C@@H](C(=O)O)C1)c1sccc1C [An_1999/3_40, s1ccc(C)c1/C(=N/OCCN1C[C@@H](CCC1)C(O)=O)/c1ccccc1C]",7.046
21,"CN1CCC[C@@H]1/C(=N\OCCN1CCC[C@@H](C(=O)O)C1)c1ccccc1 [An_1999/3_95, O(\N=C(/[C@@H]1N(CCC1)C)\c1ccccc1)CCN1C[C@@H](CCC1)C(O)=O]",7.222

# Same assay, conditions: literature data set; ref 10.1021/jm990513k; cited from earlier work
row,SMILES,pIC50
1,"O=C(O)[C@@H]1CCCN(CCOCCN2c3ccccc3Sc3ccccc32)C1 [An_2001/5_21, S1c2c(N(c3c1cccc3)CCOCCN1C[C@@H](CCC1)C(O)=O)cccc2]",6.509
2,"O=C(O)[C@@H]1CCCN(CCOCCN2c3ccccc3CCc3ccccc32)C1 [An_2001/5_23, O(CCN1C[C@@H](CCC1)C(O)=O)CCN1c2c(CCc3c1cccc3)cccc2]",6.745
3,"O=C(O)[C@@H]1CCCN(CCOCCN2c3ccccc3CCCc3ccccc32)C1 [An_2001/5_33, O(CCN1C[C@@H](CCC1)C(O)=O)CCN1c2c(CCCc3c1cccc3)cccc2]",6.071
4,"O=C(O)[C@@H]1CCCN(CCOCCN2c3ccccc3CCc3ccc(F)cc32)C1 [An_2001/5_29, Fc1cc2N(c3c(CCc2cc1)cccc3)CCOCCN1C[C@@H](CCC1)C(O)=O]",6.577
5,"O=C(O)[C@@H]1CCCN(CCOC=C2c3ccccc3CCc3ccccc32)C1 [An_2001/5_18, O(\C=C/1\c2c(CCc3c\1cccc3)cccc2)CCN1C[C@@H](CCC1)C(O)=O]",5.662
